Values quoted from earlier work, collected in patent US11903918B2, “Fumarate ester dosage forms with enhanced gastrointestinal tolerability” (BANNER LIFE SCIENCES LLC, priority 2020, dated 2024).
Structures can show the parent of a compound that is named as a salt.

Columns and labels:
[1] = test system: nuclear factor erythroid-derived 2-like (Nrf2) pathway; details: in vitro and in vivo in humans

SMILES: COC(=O)/C=C/C(=O)OC [dimethyl fumarate, dimethyl (E) butenedioate]
- solubility in water: highly soluble in water
- activation of the Nrf2 pathway [1]: activate
